A word on the pIC50: it is the negative decadic logarithm of the IC50, by convention in mol/L.

In this assay the target is T1, Activin receptor type-1 [172-499,R206H] (Homo sapiens, UniProt Q04771, R206H).
T1 construct: 172-499
The assay is described as follows: In Vitro Enzyme Inhibition Using a Biochemical Peptide Phosphorylation Assay- Caliper Assay.

Molecules are shown by their SMILES. pIC50: −log10 of the molar value.

T1 sequence (Q04771 172-499 R206H): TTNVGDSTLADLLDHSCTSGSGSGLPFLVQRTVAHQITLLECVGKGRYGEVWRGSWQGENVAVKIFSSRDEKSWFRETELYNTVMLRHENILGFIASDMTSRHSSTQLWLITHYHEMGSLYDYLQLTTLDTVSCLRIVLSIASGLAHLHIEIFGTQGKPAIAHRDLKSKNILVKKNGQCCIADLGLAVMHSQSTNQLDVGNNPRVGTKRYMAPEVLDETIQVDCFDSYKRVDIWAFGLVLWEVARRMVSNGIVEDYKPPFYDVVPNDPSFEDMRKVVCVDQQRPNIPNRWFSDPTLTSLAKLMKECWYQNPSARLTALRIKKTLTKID

For `CC(C)CN1c2ccc(-c3cncc(-c4ccc(=O)n(C(C)C)c4)c3)cc2CS1(=O)=O` [US11160797, Example 50], the pIC50 is 6.85.

Source of the values: BindingDB's records for patent US11160797 (NOVARTIS AG, 2021).
